# Columns and labels:
# Assay type in all cases: in vivo
# Amaranthus retroflexus = test: greenhouse pre-emergence herbicidal test; settings: 16 g/ha, scale from 0 to 100
# Source text: (§1) The seeds of the test plants were sown separately for each species. For the pre-emergence treatment, the active ingredients, which had been suspended or emulsified in water, were applied directly after sowing by means of finely distributing nozzles. The containers were irrigated gently to promote germination and growth and subsequently covered with transparent plastic hoods until the plants had rooted. This cover caused uniform germination of the test plants, unless this had been impaired by the active ingredients. Depending on the species, the plants were kept at 10-25° C. or 20-35° C., respectively. The test period extended over 2 to 4 weeks. During this time, the plants were tended, and their response to the individual treatments was evaluated. Evaluation was carried out using a scale from 0 to 100. 100 means no emergence of the plants, or complete destruction of at least the aerial moieties, and 0 means no damage, or normal course of growth. A good herbicidal activity is given at values of at least 70 and a very good herbicidal activity is given at values of at least 85.
# Setaria faberi = test: greenhouse pre-emergence herbicidal test; settings: 16 g/ha, scale from 0 to 100
# Source text: as §1
# Alopecurus myosuroides = test: greenhouse post-emergence herbicidal test; settings: scale from 0 to 100
# Source text: (§2) The seeds of the test plants were sown separately for each species. For the post-emergence treatment, the test plants were first grown to a height of 3 to 15 cm, depending on the plant habit, and only then treated with the active ingredients which had been suspended or emulsified in water. For this purpose, the test plants were either sown directly and grown in the same containers, or they were first grown separately as seedlings and transplanted into the test containers a few days prior to treatment. Depending on the species, the plants were kept at 10-25° C. or 20-35° C., respectively. The test period extended over 2 to 4 weeks. During this time, the plants were tended, and their response to the individual treatments was evaluated. Evaluation was carried out using a scale from 0 to 100. 100 means no emergence of the plants, or complete destruction of at least the aerial moieties, and 0 means no damage, or normal course of growth. A good herbicidal activity is given at values of at least 70 and a very good herbicidal activity is given at values of at least 85.
# Avena fatua = test: greenhouse post-emergence herbicidal test; settings: 16 g/ha, scale from 0 to 100
# Source text: as §2
# Lolium multiflorum = test: greenhouse post-emergence herbicidal test; settings: 4 g/ha, scale from 0 to 100
# Source text: as §2
Compound,"damages, Amaranthus retroflexus (Amaranthus retroflexus)","damages, Setaria faberi (Setaria faberi)","damages, Alopecurus myosuroides (Alopecurus myosuroides; 4 g/ha)","damages, Alopecurus myosuroides (Alopecurus myosuroides; 16 g/ha)","damages, Avena fatua (Avena fatua)","damages, Lolium multiflorum (Lolium multiflorum)"
"CCOC(=O)COc1ccccc1Oc1cc(-n2nc(C)n(C(F)F)c2=O)c(F)cc1Cl [Example 3, Ethyl 2-[2-[2-chloro-5-[4-(difluoromethyl)-3-methyl-5-oxo-1,2,4-triazol-1-yl]-4-fluoro-phenoxy]phenoxy]acetate]",85,85,70,95,70,90
CCOC(=O)COc1cccc(Oc2cc(-n3nc(C)n(C(F)F)c3=O)c(F)cc2Cl)c1 [compound A],45,0,–,55,20,–
CCOC(=O)COc1ccc(Oc2cc(-n3nc(C)n(C(F)F)c3=O)c(F)cc2Cl)cc1 [compound B],45,0,30,–,–,70

# Reference: patent US11185075B2, “Herbicidal phenyltriazolinones” (BASF SE, priority 2016, dated 2021)
